Source: patent US7449477B2, “7-phenyl-isoquinoline-5-sulfonylamino derivatives as inhibitors of akt (protein kinase B)” (Eli Lilly and Company, priority 2003, dated 2008)
Counter-ions that a name gives are not always drawn.

target: T1, active human Akt1 (Homo sapiens, UniProt P31749); test: Akt1 Phosphorylation Assay (phosphocellulose filter-binding, 33P-Crosstide); assay type: biochemical; conditions: active human recombinant Akt1 (full-length) 10 nM; 12.5 μM Crosstide; 20 μM ATP; 30 minutes at room temperature
T1 construct: Active human recombinant Akt1 (full-length) purified from Sf9 insect cells; purchased Upstate Biotechnology, Inc. 14-276; host or cells: Sf9 insect cells
Protocol: Akt1 Phosphorylation Assay
The assay described measures the phosphorylation of Crosstide by active human Akt1 and other Akt isoforms. Crosstide contains a consensus sequence derived from Akt substrates GSK3b and forkhead transcription factors (FKs). The ^33P-labeled Crosstide substrate is captured by phosphocellulose membrane filter plates.
Active human recombinant Akt1 (full-length) purified from Sf9 insect cells is from Upstate Biotechnology, Inc. (Cat. #14-276, 405 μg/ml). Crosstide substrate, NH2-GRPRTSSFAEG-COOH (M.W.1164) is purchased from Multiple Peptide System (Cat. # L59/GR145-153).
Solution (A): 20% DMSO (dimethylsulphoxide) or Compound in 20% DMSO; Solution (B): Assay Buffer Mix: 31.25 μM Crosstide, 37.5 mM MgCl2, 87.5 mM HEPES, pH 7.3, 50 μM ATP γ-^33P-ATP, 0.05 μCi/μl; Solution (C): Akt Kinase Mix: 31.25 mM HEPES, pH 7.3; 1 mM DTT, 25 nM UBI Akt1.
Procedure for Phosphocellulose Filter-Binding Assay
Ten μl of Solution (A) are first mixed with 20 μl Solution (B). The enzymatic reaction is initiated by adding 20 μl Solution (C) to the mixture. (Final concentration or amount in a 50-μl reaction mix: 4% DMSO or various compound concentration in 4% DMSO; 12.5 μM Crosstide; 15 mM MgCl2; 35 mM HEPES, pH7.3; 20 μM ATP; 1 μCi γ-^33P-ATP; 0.4 mM DTT; 10 nM UBI Akt1.) The reactions are performed in 96-well microtiter plates.
After 30 minutes at room temperature, the reaction is terminated by adding 80 μl of 10% H3PO4. An aliquot of 100 μl from each well is transferred to the phosphocellulose filter plate (Millipore MultiScreen, Catalog #MAPHN0B50). After 30 minutes, the reaction mix is filtered with a Millipore manifold following by 3 washes with 0.5% H3PO4. The filter is then vacuum-dried and the plate is fitted onto a Packard carrier. 100 μl/well Microscint20 are added and the contents are counted in a Packard Top Count.

T1 sequence (P31749 whole entry): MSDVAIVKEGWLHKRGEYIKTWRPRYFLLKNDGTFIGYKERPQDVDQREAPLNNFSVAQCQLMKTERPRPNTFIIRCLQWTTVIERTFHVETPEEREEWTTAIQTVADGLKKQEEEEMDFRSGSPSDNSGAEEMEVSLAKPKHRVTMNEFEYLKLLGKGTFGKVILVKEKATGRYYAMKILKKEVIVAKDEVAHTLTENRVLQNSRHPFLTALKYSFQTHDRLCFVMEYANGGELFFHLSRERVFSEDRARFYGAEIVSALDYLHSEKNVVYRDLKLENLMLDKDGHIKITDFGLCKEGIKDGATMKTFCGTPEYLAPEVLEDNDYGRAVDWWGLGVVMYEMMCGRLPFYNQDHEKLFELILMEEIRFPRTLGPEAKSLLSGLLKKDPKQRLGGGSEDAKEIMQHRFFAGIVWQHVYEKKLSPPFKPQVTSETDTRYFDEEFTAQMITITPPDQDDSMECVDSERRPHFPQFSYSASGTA

| IC50 [nM] | Structure (SMILES) |
| --- | --- |
| ≤ 2000 | O=[N+]([O-])c1ccc([C@@H](O)CCNCCNS(=O)(=O)c2cc(-c3ccccc3)cc3cnccc23)cc1 [Example 82, (S)-7-Phenyl-isoquinoline-5-sulfonic acid [2-(3-hydroxy-3-(4-nitrophenyl)-propylamino)-ethyl]-amide, mesylate salt] |
| ≤ 2000 | O=[N+]([O-])c1ccc(CC(O)CNCCNS(=O)(=O)c2cc(-c3ccccc3)cc3cnccc23)cc1 (racemic) [Example 83, 7-Phenyl-isoquinoline-5-sulfonic acid [2-(2-hydroxy-3-(4-nitrophenyl)-propylamino)-ethyl]-amide, dihydrochloride salt] |
| ≤ 2000 | CS(=O)(=O)Nc1cccc(-c2cc(S(=O)(=O)NCCNCCCc3ccc([N+](=O)[O-])cc3)c3ccncc3c2)c1 [Example 94, 7-(3-methanesulfonylamino-phenyl)-isoquinoline-5-sulfonic acid {2-[3-(4-nitro-phenyl)-propylamino]-ethyl}-amide, dihydrochloride salt] |
| ≤ 2000 | O=[N+]([O-])c1ccc(C(O)C(O)CNCCNS(=O)(=O)c2cc(-c3ccccc3)cc3cnccc23)cc1 (stereo not shown) [Example 87, 7-Phenyl-isoquinoline-5-sulfonic acid [2-(2,3-dihydroxy-3-(4-nitrophenyl)-propylamino)-ethyl]-amide, dihydrochloride salt] |
| ≤ 2000 | Nc1ccc(-c2cc(S(=O)(=O)NCCNCCCc3ccc([N+](=O)[O-])cc3)c3ccncc3c2)cc1 [Example 90, 7-(4-aminophenyl)-isoquinoline-5-sulfonic acid [2-(3-(4-nitrophenyl)-propylamino)-ethyl]-amide, trihydrochloride salt] |
| ≤ 2000 | O=[N+]([O-])c1ccc([C@H](O)CCNCCNS(=O)(=O)c2cc(-c3ccccc3)cc3cnccc23)cc1 [Example 81, (R)-7-Phenyl-isoquinoline-5-sulfonic acid [2-(3-hydroxy-3-(4-nitrophenyl)-propylamino)-ethyl]-amide, mesylate salt] |
| ≤ 2000 | O=[N+]([O-])c1ccc(CCCNCCNS(=O)(=O)c2cc(-c3ccc(O)cc3)cc3cnccc23)cc1 [Example 98, 7-(4-hydroxy-phenyl)-isoquinoline-5-sulfonic acid {2-[3-(4-nitro-phenyl)-propylamino]-ethyl}-amide, dihydrochloride salt] |
| ≤ 2000 | COc1ccc(CCCNCCNS(=O)(=O)c2cc(-c3cccc(O)c3)cc3cnccc23)c(F)c1 [Example 110, 7-(3-Hydroxy-phenyl)-isoquinoline-5-sulfonic acid {2-[3-(2-fluoro-4-methoxy-phenyl)-propylamino]-ethyl}-amide] |
| ≤ 2000 | O=S(=O)(NCCNCCCc1cccc(F)c1F)c1cc(-c2ccccc2)cc2cnccc12 [Example 68, 7-Phenyl-isoquinoline-5-sulfonic acid {2-[3-(2,3-difluorophenyl)-propylamino]-ethyl}-amide, dihydrochloride salt] |
| ≤ 2000 | O=[N+]([O-])c1cccc(C(O)CCNCCNS(=O)(=O)c2cc(-c3ccccc3)cc3cnccc23)c1 (stereo not shown) [Example 77, 7-Phenyl-isoquinoline-5-sulfonic acid [2-(3-hydroxy-3-(3-nitrophenyl)-propylamino)-ethyl]-amide, dihydrochloride salt] |
| ≤ 2000 | CCc1cc([N+](=O)[O-])ccc1CCCNCCNS(=O)(=O)c1cc(-c2ccccc2)cc2cnccc12 [Example 103, 7-Phenyl-isoquinoline-5-sulfonic acid {2-[3-(2-ethyl-4-nitro-phenyl)-propylamino]-ethyl}-amide, dihydrochloride salt] |

More lines, now with the values behind:

| Structure (SMILES) | IC50 [nM] |
| --- | --- |
| CN(C)CCOc1cc(Cl)ccc1CCCNCCNS(=O)(=O)c1cc(-c2ccccc2)cc2cnccc12 [Example 59, 7-Phenyl-isoquinoline-5-sulfonic acid {2-[3-(4-chloro-2-(2-dimethylamino-ethoxy)-phenyl)-propylamino]-ethyl}-amide, dihydrochloride salt] | ≤ 2000 |
| COc1cccc(CCCNCCNS(=O)(=O)c2cc(-c3ccccc3)cc3cnccc23)c1 [Example 31, 7-Phenyl-isoquinoline-5-sulfonic acid {2-[3-(3-methoxyphenyl)-propylamino]-ethyl}-amide, dihydrochloride salt] | ≤ 2000 |
| O=S(=O)(NCCNCCCc1ccc(OC(F)(F)C(F)F)cc1)c1cc(-c2ccccc2)cc2cnccc12 [Example 27, 7-Phenyl-isoquinoline-5-sulfonic acid {2-[3-(4-(1,1,2,2-tetrafluoroethoxy)phenyl)-propylamino]-ethyl}-amide, dihydrochloride salt] | ≤ 2000 |
| O=S1(=O)CCN(c2cc(Cl)ccc2CCCNCCNS(=O)(=O)c2cc(-c3ccccc3)cc3cnccc23)CC1 [Example 52, 7-Phenyl-isoquinoline-5-sulfonic acid {2-[3-(4-chloro-2-(1,1-dioxo-thiomorpholin-4-yl)-phenyl)-propylamino]-ethyl}-amide, trihydrochloride salt] | ≤ 2000 |
| N#Cc1ccc(CCCNCCNS(=O)(=O)c2cc(-c3ccccc3)cc3cnccc23)cc1C(F)(F)F [Example 67, 7-Phenyl-isoquinoline-5-sulfonic acid {2-[3-(4-cyano-3-trifluoromethylphenyl)-propylamino]-ethyl}-amide, dihydrochloride salt] | ≤ 2000 |
| Cc1cc([N+](=O)[O-])ccc1CCCNCCNS(=O)(=O)c1cc(-c2ccccc2)cc2cnccc12 [Example 40, 7-Phenyl-isoquinoline-5-sulfonic acid {2-[3-(2-methyl-4-nitrophenyl)-propylamino]-ethyl}-amide, dihydrochloride salt] | ≤ 2000 |
| O=S(=O)(NCCNCCCc1ccc(Cl)cc1OC1CCNC1)c1cc(-c2ccccc2)cc2cnccc12 (stereo not shown) [Example 56, 7-Phenyl-isoquinoline-5-sulfonic acid {2-[3-(4-chloro-2-(pyrrolidin-3-yl)oxy-phenyl)-propylamino]-ethyl}-amide, trihydrochloride salt] | ≤ 2000 |
| CC1CN(c2cc(Cl)ccc2CCCNCCNS(=O)(=O)c2cc(-c3ccccc3)cc3cnccc23)CCN1 (stereo not shown) [Example 54, 7-Phenyl-isoquinoline-5-sulfonic acid {2-[3-(4-chloro-2-(3-methyl-piperazin-1-yl)-phenyl)-propylamino]-ethyl}-amide, tetrahydrochloride salt] | ≤ 2000 |
| O=S(=O)(NCCNCCCc1cccc(Cl)c1Cl)c1cc(-c2ccccc2)cc2cnccc12 [Example 66, 7-Phenyl-isoquinoline-5-sulfonic acid {2-[3-(2,3-dichlorophenyl)-propylamino]-ethyl}-amide, dihydrochloride salt] | ≤ 2000 |
| CN1CCN(c2cc(Cl)ccc2CCCNCCNS(=O)(=O)c2cc(-c3ccccc3)cc3cnccc23)CC1 [Example 49, 7-Phenyl-isoquinoline-5-sulfonic acid {2-[3-(4-chloro-2-(4-methyl-piperazin-1-yl)-phenyl)-propylamino]-ethyl}-amide, tetrahydrochloride salt] | ≤ 2000 |
| CN1CCC(Oc2cc(Cl)ccc2CCCNCCNS(=O)(=O)c2cc(-c3ccccc3)cc3cnccc23)C1 (stereo not shown) [Example 55, 7-Phenyl-isoquinoline-5-sulfonic acid {2-[3-(4-chloro-2-(1-methyl-pyrrolidin-3-yl)oxy-phenyl)-propylamino]-ethyl}-amide, trihydrochloride salt] | ≤ 2000 |
